Tests used:
BpS1_11 (Bacple_01701) = target: T1, BpS1_11 (Bacple_01701) (Phocaeicola plebeius, UniProt B5CYA4); assay: 1H NMR of products; assay type: biochemical; settings: desulfation of the non-reducing-end L-galactose 6-sulfate
T1 construct: signal peptide removed; pET-28 or pFO4, HisTrap purified; formylglycine sulfatase (Ser83 is formylglycine in mature enzyme)

BpGH16C (Bacple_01703) = target: T2, BpGH16C (Bacple_01703) (Phocaeicola plebeius, UniProt B5CYA6); assay: X-ray crystal structure, […] Å, soaked crystal; assay type: binding; settings: inactive mutant; soaked with tetrasaccharide, only a trisaccharide modelled (subsites -1 to -3; Figure 2 legend says disaccharide); pH 7.5
T2 construct: signal peptide removed; pET-28 or pFO4, HisTrap purified; three independent molecules in asymmetric unit of complex

BpGH2C (Bacple_01706) = target: T3, BpGH2C (Bacple_01706) (Phocaeicola plebeius, UniProt B5CYA9); assay: 1H NMR after sequential enzyme incubation; assay type: biochemical; settings: substrate made in situ by BpS1_[…] then BpGH29
T3 construct: signal peptide removed; pET-28 or pFO4, HisTrap purified
T3 sequence (B5CYA9 1-1086): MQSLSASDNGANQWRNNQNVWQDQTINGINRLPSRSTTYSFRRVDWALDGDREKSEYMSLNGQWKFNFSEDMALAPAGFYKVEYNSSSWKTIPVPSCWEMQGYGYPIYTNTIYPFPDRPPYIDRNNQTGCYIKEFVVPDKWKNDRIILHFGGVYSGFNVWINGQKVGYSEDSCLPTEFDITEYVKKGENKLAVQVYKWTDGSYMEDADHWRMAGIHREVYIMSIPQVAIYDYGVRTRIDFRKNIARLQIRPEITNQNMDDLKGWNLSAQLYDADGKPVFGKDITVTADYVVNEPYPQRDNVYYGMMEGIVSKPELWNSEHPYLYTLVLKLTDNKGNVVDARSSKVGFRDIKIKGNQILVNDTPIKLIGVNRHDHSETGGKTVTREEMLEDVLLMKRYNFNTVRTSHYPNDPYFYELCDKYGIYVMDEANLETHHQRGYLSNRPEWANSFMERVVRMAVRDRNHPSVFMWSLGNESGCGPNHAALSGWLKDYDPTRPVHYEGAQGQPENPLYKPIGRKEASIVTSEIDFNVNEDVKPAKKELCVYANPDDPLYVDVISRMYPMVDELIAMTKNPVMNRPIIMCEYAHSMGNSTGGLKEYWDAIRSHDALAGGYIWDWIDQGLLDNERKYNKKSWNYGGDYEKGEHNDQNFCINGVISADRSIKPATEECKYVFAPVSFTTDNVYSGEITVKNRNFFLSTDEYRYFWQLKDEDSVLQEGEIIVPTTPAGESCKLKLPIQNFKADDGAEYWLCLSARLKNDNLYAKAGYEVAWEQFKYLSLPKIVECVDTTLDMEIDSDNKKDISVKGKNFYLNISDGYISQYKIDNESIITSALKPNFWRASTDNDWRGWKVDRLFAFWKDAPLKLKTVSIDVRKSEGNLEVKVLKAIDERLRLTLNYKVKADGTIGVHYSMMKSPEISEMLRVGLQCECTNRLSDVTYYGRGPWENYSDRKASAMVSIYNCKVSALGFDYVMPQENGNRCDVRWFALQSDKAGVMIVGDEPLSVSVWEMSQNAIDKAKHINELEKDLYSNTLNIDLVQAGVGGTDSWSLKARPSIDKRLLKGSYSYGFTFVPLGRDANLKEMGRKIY

T1 sequence (B5CYA4 entry or part of it): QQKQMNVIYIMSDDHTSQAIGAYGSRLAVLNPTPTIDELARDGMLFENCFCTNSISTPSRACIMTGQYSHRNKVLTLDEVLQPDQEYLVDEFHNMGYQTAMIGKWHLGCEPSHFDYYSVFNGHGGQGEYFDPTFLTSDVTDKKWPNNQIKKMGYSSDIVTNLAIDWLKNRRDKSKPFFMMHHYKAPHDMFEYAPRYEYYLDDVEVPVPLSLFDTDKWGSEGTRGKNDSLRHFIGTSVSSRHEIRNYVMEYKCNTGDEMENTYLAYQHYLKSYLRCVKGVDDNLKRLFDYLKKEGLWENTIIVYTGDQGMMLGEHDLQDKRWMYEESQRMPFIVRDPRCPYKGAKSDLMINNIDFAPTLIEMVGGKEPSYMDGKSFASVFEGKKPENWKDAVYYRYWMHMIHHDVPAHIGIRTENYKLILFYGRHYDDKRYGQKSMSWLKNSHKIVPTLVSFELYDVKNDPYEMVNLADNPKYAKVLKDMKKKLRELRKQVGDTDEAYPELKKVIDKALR
T2 sequence (B5CYA6 entry or part of it E178L): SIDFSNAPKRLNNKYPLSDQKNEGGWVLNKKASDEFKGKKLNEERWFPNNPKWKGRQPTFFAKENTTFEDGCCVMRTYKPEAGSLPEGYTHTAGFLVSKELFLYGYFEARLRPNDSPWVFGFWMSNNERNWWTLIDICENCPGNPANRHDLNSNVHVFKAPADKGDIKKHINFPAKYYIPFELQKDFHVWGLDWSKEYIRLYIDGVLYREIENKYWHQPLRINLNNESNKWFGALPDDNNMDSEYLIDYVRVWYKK

Compound | 1H NMR of products (BpS1_11 (Bacple_01701)) | X-ray crystal structure, 1.8 Å, soaked crystal (BpGH16C (Bacple_01703)) | 1H NMR after sequential enzyme incubation (BpGH2C (Bacple_01706))
O=S(=O)(O)OC[C@@H]1O[C@@H](O[C@H]2[C@@H](O)[C@@H](CO)O[C@@H](O[C@H]3[C@@H](O)[C@H](O)[C@H](O[C@H]4[C@@H](O)[C@@H](CO)OC(O)[C@@H]4O)O[C@H]3COS(=O)(=O)O)[C@@H]2O)[C@@H](O)[C@H](O)[C@@H]1O (stereo partly drawn) [L-α-6O-sulfate-Gal-(1 → 3)-D-β-Gal-(1 → 4)-L-α-6O-sulfate-Gal-(1 → 3)-D-a/β-Gal] | After desulfation of the tetra-saccharides | we crystallized the E145L inactive mutant with the tetrasaccharide | 
O=S(=O)(O)OC[C@@H]1O[C@@H](O[C@H]2[C@@H](O)[C@@H](CO)OC(O)[C@@H]2O)[C@@H](O)[C@H](O)[C@@H]1O[C@@H]1O[C@H](CO)[C@H](O)[C@H](O)[C@H]1O (stereo partly drawn) [trisaccharide with non-methylated D-galactose at the non-reducing end] |  |  | methylated or non-methylated D-galactose residue located at the non-reducing end of the trisaccharide was cleaved
